Results published in patent publication US20220096461A1, “LIQUID ORAL DOSAGE FORMULATIONS OF METHYLNALTREXONE” (Bausch Health Ireland Limited, priority 2019, published 2022).

Assays:
[1] = Partition coefficient between octanol and water (Log P); format: physicochemical; details: n-octanol/water; ratios 9:1, 7:3, 1:1; HPLC
Method: To determine the partition coefficient of each ion pair, about 15 mg of each ion pair was dissolved in separate 100 ml portions of n-octanol (previously saturated with water). Three n-octanol solutions were prepared for each ion pair. Mixtures having three different volumetric ratios of n-octanol to water (9:1, 7:3, and 1:1) were prepared by adding water and agitating the mixtures on a bench top agitator for two hours. After agitation, samples from each mixture were centrifuged for 10 min at 10,000 rpm to separate aqueous and n-octanol phase. The concentration of methylnaltrexone in the aqueous and n-octanol phases was determined by HPLC. Log P was calculated from the ratio of the drug concentration in n-octanol to the drug concentration in water.

[2] = tested on: opioid-induced constipation; details: 12 mg subcutaneous injection; patients with chronic non-cancer pain; cited from earlier work

Compound	LogP [1]	Patients with three or more spontaneous bowel movements each week for four weeks [2]
CCCCC(CC)COC(=O)CC(C(=O)OCC(CC)CCCC)S(=O)(=O)[O-].C[N+]1(CC2CC2)CCC23c4c5ccc(O)c4OC2C(=O)CCC3(O)C1C5 (stereo not drawn) [Methylnaltrexone - Docusate]	1.67	–
C[N@+]1(CC2CC2)CC[C@]23c4c5ccc(O)c4O[C@H]2C(=O)CC[C@@]3(O)[C@H]1C5 [methylnaltrexone, (R)—N-methylnaltrexone]	–	59%
Methylnaltrexone - Lauryl Sulfate	1.23	–
